Results published in patent publication US9796777B2, “Methods of treating malignant tumors” (Canimguide Therapeutics AB, priority 2007, dated 2017).

Columns and labels:
[1] = test system: PBMCs; test: PHA-induced proliferation of PBMC in the presence of albumin peptides and/or dHSA; type: cell-based, human; conditions: PBMCs from two healthy controls; two PHA concentrations
Source text: Venous blood was drawn from healthy volunteers or from cancer patients in glass vacuum tubes with acid dextrose citrate solution A as anti-coagulant (Vacutainer, Becton Dickinson, Franklin Lakes, N.J.). Erythrocytes were removed by sedimentation on 2% dextran T500 solution (Amersham Pharmacia Biotech AB, Uppsala, Sweden) in 0.9% NaCl (this step was omitted for cultures with PHA-stimulation-see below). […] For cell cultures with PHA-stimulation, PBMC were washed in Hank's Balanced Salt Solution (HBSS) with 10% autologous plasma instead of RPMI/2% HSA. […] The cell suspension was stained with Turk's solution and the number of lymphocytes and monocytes in the PBMC preparation were counted in a hemocytometer. PBMCs were suspended in RPMI/2% HSA and the cell concentration adjusted to 5×10^5 lymphocytes/ml.
100 μl of the cell suspension were seeded into round-bottomed microtiter plates (Corning, N.Y., USA) followed by 100 μl of culture medium consisting of RPMI 1640 (Flow Laboratories, Irvine, Scotland) supplemented with 200 IU/ml Penicillin, 200 μg/ml Streptomycin (Flow laboratories) and 20% heat inactivated autologous serum. Phytohemagglutinin (PHA-P, Sigma Chemical Co, St. Louis, Mo.) at a final concentration of 5 or 10 μg/ml was then added.
All culture conditions were set up in triplicate wells. […] Mean values of disintegrations per minute (dpm) of triplicates were used for the calculations.

[2] = target: T1, β2-integrin LFA-1 (CD11a) (Homo sapiens, UniProt P20701); test: Immunocytochemical staining of PBMC and THP-1 with anti-integrin (CD11a) antibody with or without albumin peptides; type: binding; conditions: mononuclear blood cells
T1 construct: endogenous in cells; host or cells: human PBMC (healthy controls, cancer patients) and THP-1 monocytic cell line (ATCC)
T1 sequence (P20701 26-1170): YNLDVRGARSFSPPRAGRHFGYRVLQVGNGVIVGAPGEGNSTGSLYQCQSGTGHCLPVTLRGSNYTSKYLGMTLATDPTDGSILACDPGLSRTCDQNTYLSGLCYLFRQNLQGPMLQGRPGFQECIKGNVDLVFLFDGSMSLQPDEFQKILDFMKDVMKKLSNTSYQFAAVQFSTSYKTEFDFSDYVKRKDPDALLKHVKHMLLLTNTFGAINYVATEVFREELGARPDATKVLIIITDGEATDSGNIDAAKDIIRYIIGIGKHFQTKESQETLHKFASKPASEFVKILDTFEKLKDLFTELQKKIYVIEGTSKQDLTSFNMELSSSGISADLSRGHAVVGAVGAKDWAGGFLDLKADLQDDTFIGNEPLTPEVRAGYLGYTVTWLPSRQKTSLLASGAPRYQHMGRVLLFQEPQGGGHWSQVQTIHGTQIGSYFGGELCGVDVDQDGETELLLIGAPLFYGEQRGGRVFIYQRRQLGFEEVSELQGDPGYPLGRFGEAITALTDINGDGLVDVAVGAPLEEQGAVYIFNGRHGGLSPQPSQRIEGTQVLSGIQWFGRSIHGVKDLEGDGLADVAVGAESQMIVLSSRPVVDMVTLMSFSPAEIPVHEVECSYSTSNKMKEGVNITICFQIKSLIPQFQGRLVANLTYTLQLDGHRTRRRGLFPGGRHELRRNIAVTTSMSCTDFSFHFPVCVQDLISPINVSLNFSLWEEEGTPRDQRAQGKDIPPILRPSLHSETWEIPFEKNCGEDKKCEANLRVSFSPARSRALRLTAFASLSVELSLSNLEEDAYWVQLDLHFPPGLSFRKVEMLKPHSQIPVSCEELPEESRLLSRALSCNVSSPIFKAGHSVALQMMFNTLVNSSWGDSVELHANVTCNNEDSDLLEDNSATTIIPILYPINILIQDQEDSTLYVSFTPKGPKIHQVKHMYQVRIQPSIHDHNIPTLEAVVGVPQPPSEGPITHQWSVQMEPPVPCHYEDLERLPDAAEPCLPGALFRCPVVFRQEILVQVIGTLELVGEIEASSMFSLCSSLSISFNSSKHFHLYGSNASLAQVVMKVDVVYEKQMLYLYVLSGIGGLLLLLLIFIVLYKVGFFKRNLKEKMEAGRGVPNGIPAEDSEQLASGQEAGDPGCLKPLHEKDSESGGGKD
T1 sequence (P05107 23-769 partner): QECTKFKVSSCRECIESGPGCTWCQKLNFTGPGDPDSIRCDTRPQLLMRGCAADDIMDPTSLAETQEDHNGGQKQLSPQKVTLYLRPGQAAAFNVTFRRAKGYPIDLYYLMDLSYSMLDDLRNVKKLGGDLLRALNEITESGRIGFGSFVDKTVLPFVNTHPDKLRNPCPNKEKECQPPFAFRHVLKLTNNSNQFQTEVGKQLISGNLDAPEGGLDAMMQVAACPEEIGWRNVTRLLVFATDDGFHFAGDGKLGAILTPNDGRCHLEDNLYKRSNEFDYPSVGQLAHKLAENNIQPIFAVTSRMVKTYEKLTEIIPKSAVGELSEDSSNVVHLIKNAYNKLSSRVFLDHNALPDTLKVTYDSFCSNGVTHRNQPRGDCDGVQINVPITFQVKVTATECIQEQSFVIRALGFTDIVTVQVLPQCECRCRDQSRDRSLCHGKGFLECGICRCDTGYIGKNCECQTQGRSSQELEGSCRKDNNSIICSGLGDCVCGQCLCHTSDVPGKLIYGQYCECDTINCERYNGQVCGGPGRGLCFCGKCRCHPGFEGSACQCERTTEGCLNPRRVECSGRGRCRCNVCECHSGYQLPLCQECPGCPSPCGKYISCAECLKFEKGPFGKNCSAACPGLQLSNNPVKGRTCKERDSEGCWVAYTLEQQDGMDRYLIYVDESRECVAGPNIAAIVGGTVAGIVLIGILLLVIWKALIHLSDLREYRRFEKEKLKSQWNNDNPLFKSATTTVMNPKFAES
Protocol: Cytospin preparations of mononuclear blood cells from healthy controls, cancer patients and a monocytic cell line, THP-1, were prepared (as described under materials and methods), dried and stored at −70° C. In the immunocytological staining, unspecific staining was blocked by incubation with 10% human AB serum. Some of the slides were preincubated for 60 minutes with albumin peptides at a concentration of 40 μg/ml, added to this 10% AB serum, as indicated in the FIG. 8 A-F. The staining procedure was then continued as described in material and methods. The staining intensity of slides stained with and without preincubation with the peptides was recorded semi quantitatively using a standard light microscope.
PBMC were separated as described above. Cultured THP-1 cells (obtained from the American Type Culture Collection through LGL Nordic AB, Sweden) were carefully washed and suspended in RPMI1640. PBMC and THP-1 were immediately spun down on pre-cleaned microscope slides in a Shandon Cytospin (Shandon Scientific Ltd, UK) at 1000 RPM for 7 min at 2.5 or 5×10^4 cells per slide. The slides were left to dry at room temperature over night, after which they were wrapped in parafilm and stored at −70° C. Immediately before use, the cytospins were thawed and fixed with acetone for 5 min at room temperature. The cytospins were first blocked with 10% normal human AB-serum with and without albumin peptides (40 ␣g/ml) for 1 h before staining. Primary antibody, consisting of a monoclonal mouse anti-human CD11a (clone HI111, BD Biosciences) diluted in Tris buffered saline (TBS, pH 7.6) at 5 μg/ml (THP-1) or 1 µg/ml (PBMC), was added. The slides were incubated for 30 min and then washed in TBS followed by Envision-Alkaline Phosphatase (Dako Norden A/S, Denmark) for 30 min. After additional washing in TBS, the slides were incubated in alkaline phoshatase substrate consisting of Fast Red TR salt (Sigma), naphtol AS-MX (Sigma) and 5 mM levamisol (Sigma) to block endogenous alkaline phosphatase activity, for 20 min followed by washing in TBS. They were then counterstained in Mayer's haematoxylin for 1 minute and mounted in Glycergel (Dako Norden NS). Monoclonal mouse IgG1 against an irrelevant antigen (Aspergillus niger glukosoxidase, Dako Norden NS) was used as a negative control. All incubations were performed at room temperature in a moist chamber.
FIG. 24. Inhibition of the binding of anti-LFA-1, mab HI111, to mononuclear blood cells by 3028 peptide and fragments 3325 and 3218. A standard immunohistochemical staining procedure using acetone fixation, 10% human AB-serum for blocking, incubation with HI 111 and a secondary antibody (Ultravision, an alkaline phosphate conjugated polymer attached to Fab-fragments of goat anti-mouse Ig), followed by development with Fast Red. The slides were then mounted in Glycergel. Preincubation with peptides added to the AB serum was as follows: A. No peptide added, B. peptide 3028, C. The C-terminal part (3218), and D. The N-terminal part (3325).

[3] = test system: natural killer (NK) cells; test: Cytotoxic activity of natural killer (NK) cells against K562 (NKTEST, flow cytometry); type: cell-based, human; conditions: four healthy donors; peptides 10 ug/ml; effector:target ratio 40:1
Protocol: Mononuclear cells were separated by standard Ficoll-paque Plus (Pharmacia AB, Sweden) density gradient centrifugation from heparinized blood obtained from healthy donors. NK cell cytotoxic activity of the mononuclear cells was then tested using a commercial kit (NKTEST, Orpegen Pharma GmbH, Heidelberg, Germany) following the manufacturers protocol. Briefly, the kit contains cryopreserved, NK-sensitive target cells (K562) labelled with a lipophilic green fluorescent membrane dye, which enables discrimination of effector and target cells. After incubation with effector cells, killed target cells are identified by a DNA-stain, which penetrates and specifically stain the nuclei of dead target cells. This way the percentage of killed targets can be determined by flow cytometry. The mononuclear cells were pre-incubated for 30 min at 37° C. with the indicated peptides (peptides have been described previously) at 10 ug/ml. Target cells were then added, giving an effector:target ratio of 40:1, and the cell mixture incubated at 37° C. for 3-4 hours. Samples were analysed on a FACSCalibur (BD Biosciences, San Jose, Calif.).

Sequence: VFDEFKPLVEEPQNLIK [peptide 3028]
- effect on dHSA modulated PHA stimulated proliferation [1]: inhibited the stimulatory activity of dHSA
- effect on binding of the LFA-1 antibody (HI 111) to LFA-1 [2]: Both inhibition (FIG. 24) and enhancement of the binding
- effect on percent specific lysis of K562 target cells [3]: reduced the percent specific lysis of K562 target cells by all four donors
